Activity calls are given as the source filed them. The rule behind the calls is not given here.
How the values were obtained:
[1] = tested on: Enterococcus faecalis; assay: Antibacterial activity against Vancomycin-resistant Enterococcus faecalis ATCC 51299 assessed as inhibition of bacterial growth measured after 20 hrs by two-fold microdilution assay; assay type: functional
[2] = tested on: Enterococcus faecium; assay: Antibacterial activity against Vancomycin-resistant Enterococcus faecium ATCC 51559 assessed as inhibition of bacterial growth measured after 20 hrs by two-fold microdilution assay; assay type: functional
[3] = tested on: Bacillus subtilis; assay: Ratio of MBC to MIC against penicillin-susceptible Bacillus subtilis ATCC 9372; assay type: functional
[4] = tested on: Staphylococcus aureus; assay: Antibacterial activity against penicillin-resistant Staphylococcus aureus ATCC 31007 assessed as inhibition of bacterial growth measured after 20 hrs by two-fold microdilution assay; assay type: functional
[5] = tested on: Staphylococcus aureus; assay: Ratio of MBC to MIC against erythromycin-susceptible Staphylococcus aureus ATCC 25923; assay type: functional
[6] = tested on: Staphylococcus aureus; assay: Ratio of MBC to MIC against methicilline-resistant Staphylococcus aureus ATCC43300; assay type: functional
[7] = tested on: Staphylococcus aureus; assay: Bactericidal activity against penicillin-resistant Staphylococcus aureus ATCC 31007 assessed as inhibition of bacterial growth measured after 20 hrs by two-fold microdilution assay; assay type: functional
[8] = tested on: Bacillus pumilus; assay: Antibacterial activity against penicillin-susceptible Bacillus pumilus CMCC63202 assessed as inhibition of bacterial growth measured after 20 hrs by two-fold microdilution assay; assay type: functional
[9] = tested on: Enterococcus faecium; assay: Antibacterial activity against Vancomycin-susceptible Enterococcus faecium ATCC 19434 assessed as inhibition of bacterial growth measured after 20 hrs by two-fold microdilution assay; assay type: functional
[10] = tested on: Bacillus subtilis; assay: Bactericidal activity against penicillin-susceptible Bacillus subtilis ATCC 9372 assessed as inhibition of bacterial growth measured after 20 hrs by two-fold microdilution assay; assay type: functional
[11] = tested on: Bacillus pumilus; assay: Ratio of MBC to MIC against penicillin-susceptible Bacillus pumilus CMCC63202; assay type: functional
[12] = tested on: Enterococcus faecalis; assay: Antibacterial activity against Vancomycin-susceptible Enterococcus faecalis ATCC 29212 assessed as inhibition of bacterial growth measured after 20 hrs by two-fold microdilution assay; assay type: functional
[13] = tested on: Pseudomonas aeruginosa; assay: Antibacterial activity against penicillin-susceptible Pseudomonas aeruginosa ATCC 27853 assessed as inhibition of bacterial growth measured after 20 hrs by two-fold microdilution assay; assay type: functional
[14] = tested on: Streptococcus pyogenes; assay: Antibacterial activity against erythromycin-resistant Streptococcus pyogenes assessed as inhibition of bacterial growth measured after 20 hrs by two-fold microdilution assay; assay type: functional
[15] = tested on: Escherichia coli; assay: Antibacterial activity against penicillin-susceptible Escherichia coli ATCC 25922 assessed as inhibition of bacterial growth measured after 20 hrs by two-fold microdilution assay; assay type: functional
[16] = tested on: Streptococcus pyogenes; assay: Antibacterial activity against erythromycin-susceptible Streptococcus pyogenes assessed as inhibition of bacterial growth measured after 20 hrs by two-fold microdilution assay; assay type: functional
[17] = tested on: Staphylococcus aureus; assay: Bactericidal activity against erythromycin-susceptible Staphylococcus aureus ATCC 25923 assessed as inhibition of bacterial growth measured after 20 hrs by two-fold microdilution assay; assay type: functional
[18] = tested on: Staphylococcus aureus; assay: Bactericidal activity against methicillin-resistant Staphylococcus aureus ATCC43300 assessed as inhibition of bacterial growth measured after 20 hrs by two-fold microdilution assay; assay type: functional
[19] = tested on: Staphylococcus aureus; assay: Antibacterial activity against methicillin-resistant Staphylococcus aureus ATCC43300 assessed as inhibition of bacterial growth measured after 20 hrs by two-fold microdilution assay; assay type: functional
[20] = tested on: Staphylococcus aureus; assay: Antibacterial activity against erythromycin-susceptible Staphylococcus aureus ATCC 25923 assessed as inhibition of bacterial growth measured after 20 hrs by two-fold microdilution assay; assay type: functional
[21] = tested on: Bacillus subtilis; assay: Antibacterial activity against penicillin-susceptible Bacillus subtilis ATCC 9372 assessed as inhibition of bacterial growth measured after 20 hrs by two-fold microdilution assay; assay type: functional
[22] = tested on: Staphylococcus aureus; assay: Antibacterial activity against clinical isolate Staphylococcus aureus C1 assessed as inhibition of bacterial growth measured after 20 hrs by two-fold microdilution assay; assay type: functional
[23] = tested on: Staphylococcus epidermidis; assay: Antibacterial activity against penicillin-resistant Staphylococcus epidermidis assessed as inhibition of bacterial growth measured after 20 hrs by two-fold microdilution assay; assay type: functional
[24] = tested on: Bacillus pumilus; assay: Bactericidal activity against penicillin-susceptible Bacillus pumilus CMCC63202 assessed as inhibition of bacterial growth measured after 20 hrs by two-fold microdilution assay; assay type: functional
[25] = tested on: Staphylococcus aureus; assay: Antibacterial activity against Staphylococcus aureus ATCC 25923 assessed as fold change in MIC value measured after 14 passages by Multi passage resistance assay; assay type: functional, organism-based
[26] = tested on: Staphylococcus aureus; assay: Ratio of MBC to MIC against penicillin-resistant Staphylococcus aureus ATCC 31007; assay type: functional
[27] = tested on: Staphylococcus aureus; assay: Antibacterial activity against Staphylococcus aureus ATCC 25923 infected in Kunming mouse assessed as decrease in viable bacterial in eye blood at 25 mg/kg, ip measured after 1 hr; assay type: functional, organism-based
[28] = tested on: Staphylococcus aureus; assay: Antibacterial activity against Staphylococcus aureus ATCC 25923 assessed as decrease of bacterial growth measured up to 24 hrs by Time kill assay; assay type: functional, organism-based; conditions: dose 4-32 µg/ml, time hrs <=24
[29] = tested on: Pseudomonas aeruginosa; assay: Anti-biofilm activity against Pseudomonas aeruginosa ATCC 27853 assessed as inhibition of biofilm formation at 4 to 64 ug/ml measured after 20 hrs by crystal violet staining based biofilm formation inhibition assay; assay type: functional, organism-based; conditions: dose 4-64 µg/ml
[30] = tested on: Staphylococcus aureus; assay: Antibacterial activity against Staphylococcus aureus ATCC 25923 infected in Kunming mouse assessed as decrease in viable bacterial in eye blood at 5 mg/kg, ip measured after 1 hr; assay type: functional, organism-based
[31] = tested on: Staphylococcus aureus; assay: Antibacterial activity against Staphylococcus aureus ATCC 25923 assessed as fold increase in MIC value measured after 1 passage by Multi passage resistance assay; assay type: functional
[32] = tested on: Bacillus pumilus; assay: Inhibition of Bacillus pumilus CMCC63202 FtsZ assessed as aggregation of FtsZ at 10 ug/ml pre-incubated for 30 mins followed by addition of GTP and measured after 30 mins measured after by Transmission electron microscopic method; conditions: dose 10.0 µg/ml
[33] = Hemolytic activity against mouse RBC at 1 to 16 ug/ml measured after 1 hr by hemolysis assay relative to Triton X-100; assay type: ADME, cell-based, Erythrocyte; conditions: mouse red blood cells (erythrocytes), at 1 to 16 µg/mL, dose 1-16 µg/ml, read-out: Activity
[34] = target: T1, Cell division protein FtsZ (Bacillus subtilis (strain 168)) (UniProt P17865); assay: Inhibition of Bacillus subtilis FtsZ assessed as promotion of FtsZ polymerization measured after […] by fluorescence spectrometer based light scattering assay; conditions: dose 2.5-10 µg/ml
T1 sequence (whole entry): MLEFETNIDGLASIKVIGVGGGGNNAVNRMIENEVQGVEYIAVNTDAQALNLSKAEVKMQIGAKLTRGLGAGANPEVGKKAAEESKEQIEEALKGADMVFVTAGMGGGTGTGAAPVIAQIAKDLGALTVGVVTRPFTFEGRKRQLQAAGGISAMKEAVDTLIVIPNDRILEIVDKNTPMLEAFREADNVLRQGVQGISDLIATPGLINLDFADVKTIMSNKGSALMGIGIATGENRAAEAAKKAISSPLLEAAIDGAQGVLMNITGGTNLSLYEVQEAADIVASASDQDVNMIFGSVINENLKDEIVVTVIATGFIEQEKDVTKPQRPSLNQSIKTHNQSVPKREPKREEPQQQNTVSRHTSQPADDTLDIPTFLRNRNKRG

[35] = tested on: Staphylococcus aureus; assay: Antibacterial activity against Staphylococcus aureus ATCC 25923 assessed as reduction of colony forming units at 4 to 64 ug/ml measured up to 24 hrs by Time kill assay; assay type: functional, organism-based; conditions: dose 4-64 µg/ml, time hrs <=24
[36] = tested on: Bacillus pumilus; assay: Inhibition of Bacillus pumilus CMCC63202 FtsZ assessed as change in morphology by measuring increase of cell length at 16 ug/ml measured after 20 hrs by optical microscopy; conditions: dose 16.0 µg/ml
[37] = tested on: Enterococcus faecium; assay: Bactericidal activity against Vancomycin-susceptible Enterococcus faecium ATCC 19434 assessed as inhibition of bacterial growth measured after 20 hrs by two-fold microdilution assay; assay type: functional
[38] = tested on: Enterococcus faecium; assay: Ratio of MBC to MIC against Vancomycin-susceptible Enterococcus faecium ATCC 19434; assay type: functional
[39] = tested on: Enterococcus faecium; assay: Bactericidal activity against Vancomycin-resistant Enterococcus faecium ATCC 51559 assessed as inhibition of bacterial growth measured after 20 hrs by two-fold microdilution assay; assay type: functional
[40] = tested on: Enterococcus faecalis; assay: Bactericidal activity against Vancomycin-resistant Enterococcus faecalis ATCC 51299 assessed as inhibition of bacterial growth measured after 20 hrs by two-fold microdilution assay; assay type: functional
[41] = tested on: Enterococcus faecalis; assay: Ratio of MBC to MIC against Vancomycin-susceptible Enterococcus faecalis ATCC 29212; assay type: functional
[42] = tested on: Enterococcus faecalis; assay: Bactericidal activity against Vancomycin-susceptible Enterococcus faecalis ATCC 29212 assessed as inhibition of bacterial growth measured after 20 hrs by two-fold microdilution assay; assay type: functional
[43] = tested on: Enterococcus faecalis; assay: Ratio of MBC to MIC against Vancomycin-resistant Enterococcus faecalis ATCC 51299; assay type: functional

SMILES | MIC [1] | MIC [2] | Ratio [3] | MIC [4] | Ratio [5] | MBC [7] | MIC [8] | MIC [9] | MBC [10] | MIC [12] | MIC [13] | MIC [14] | MIC [15] | MIC [16] | MBC [17] | MBC [18] | MIC [19] | MIC [20] | MIC [21] | MIC [22] | also measured
Cc1ccc2c[n+](C)c3ccc(-c4ccc5ccn(Cc6ccccc6)c5c4)cc3c2c1.[Cl-] | 16 µg/mL | 4 µg/mL | 2 | 4 µg/mL | 16 | 64 µg/mL | 4 µg/mL | 4 µg/mL | 4 µg/mL | 8 µg/mL | > 64 µg/mL | 4 µg/mL | > 64 µg/mL | 4 µg/mL | 32 µg/mL | 16 µg/mL | 4 µg/mL | 2 µg/mL | 2 µg/mL | 2 µg/mL | Ratio [6]: 4; Ratio [11]: 16; MIC [23]: 8 µg/mL; MBC [24]: 64 µg/mL
Cc1cccc2c[n+](C)c3ccc(-c4ccc5ccn(Cc6ccccc6)c5c4)cc3c12.[Cl-] | 16 µg/mL | 8 µg/mL | 4 | 4 µg/mL | 32 | 64 µg/mL | 4 µg/mL | 8 µg/mL | 16 µg/mL | 8 µg/mL | > 64 µg/mL | 8 µg/mL | > 64 µg/mL | 8 µg/mL | 32 µg/mL | 64 µg/mL | 2 µg/mL | 1 µg/mL | 4 µg/mL | 2 µg/mL | Activity [25]: Active; Ratio [26]: 16; Activity [27]: Active; Activity [28]: Dose-Dependent Effect; Activity [29]: inactive; Activity [30]: Active; fold change (FC) [31]: 2; inhibition [32]: Active; hemolysis at 1 h [33]: < 8%; inhibition [34]: Active; Activity [35]: Active; MIC [23]: 8 µg/mL; MBC [24]: > 64 µg/mL; inhibition [36]: Active
Cc1ccc2c[n+](C)c3ccc(-c4ccc5ccn(Cc6ccc(C(F)(F)F)cc6)c5c4)cc3c2c1.[Cl-] | 4 µg/mL | 4 µg/mL | 1 | 8 µg/mL | 2 | 16 µg/mL | 2 µg/mL | 2 µg/mL | > 8 µg/mL | 4 µg/mL | > 64 µg/mL | 8 µg/mL | > 64 µg/mL | 8 µg/mL | 4 µg/mL | 8 µg/mL | 4 µg/mL | 2 µg/mL | 8 µg/mL | 2 µg/mL | Ratio [26]: 4; MBC [37]: 16 µg/mL; Ratio [38]: 8; MBC [39]: 32 µg/mL; MBC [40]: 32 µg/mL; Ratio [41]: 4; Ratio [11]: 8; MIC [23]: 2 µg/mL; MBC [24]: 16 µg/mL; MBC [42]: 16 µg/mL; Ratio [43]: 8

Reference: ChEMBL document CHEMBL4828726, “Modification of 5-methylphenanthridium from benzothiazoles to indoles as potent FtsZ inhibitors: Broadening the antibacterial spectrum toward vancomycin-resistant enterococci” (Eur J Med Chem, 2021)
